Assay results as given in patent US5599839A, “Antiviral composition” (The United States of America as represented by the …, priority 1995, dated 1997).
Where two headings read alike, the source gives them in different places.

Tests used:
protein kinase C = assay: [3H]PDBu binding to partially purified protein kinase C; settings: read-out: Ki, competition of [3H]PDBu binding to protein kinase C; for comparison; mean±range, 2 experiments
Experimental: (§1) Incubation was for 30 min at 37° C., after which the cells were chilled, an aliquot removed to determine total counts, and bound counts determined by filtration.

C3H10T1/2 cells [1] = assay: Release of [3H]arachidonic acid metabolites in C3H10T1/2 cells; type: cell-based; settings: Mus musculus, C3H 10T1/2, read-out: Half-maximally effective concentration, release of arachidonic acid metabolites
Excerpt: (§2) Well-characterized biological responses to the phorbol esters include inhibition of binding of epidermal growth factor and release of arachidonic acid metabolites [Dell'Aquila et al.: Cancer Res. 48:3702-3708, (1988)].

[2] = test system: HIV-1 (RF variant) in CEM-SS cells; assay: XTT-tetrazolium anti-HIV assay (HIV-1-infected CEM-SS cells); type: cell-based; settings: 50 nM
Excerpt: (§3) Cancer Inst. […] Cancer Inst. 81:1254-1258, (1989)] but with several modifications.
(§4) Philadelphia: Lippincott, 1988, pp. 305-317; Weislow et al.: J. Nat. Cancer Inst. […] Cancer Inst. 81:1254-1258, (1989)].

CEM-SS cells [3] = type: cell-based, human
Excerpt: as §3, §4

[4] = cited from earlier work
in vitro = settings: human, cem-ss cells
Experimental: (§5) Trypan blue dye exclusion was employed for secondary evaluation of drug toxicity and antiviral protection over time. A 50 μl aliquot of cells was removed from each test well and mixed with 100 μl of 0.4% trypan blue. The percentage of viable cells was determined microscopically by direct hemocytometer counts.

CEM-SS cells [5] = assay: in vitro; settings: HIV-1-infected, prostratin-treated (FIG. 4)
Experimental: as §5

CEM-SS cells [6] = type: binding, human; settings: for Ki: read-out: Ki, inhibition of [3H]PDBu binding to CEM cells
Experimental: as §1
Binding affinities of phorbol esters in cells are typically lower than those obtained with reconstituted protein kinase C [Blumberg et al.: in Mechanism of Tumor Promotion, Vol. 3. Tumor Promotion and Cocarcinogenesis in vitro, (Slaga T. J., ed.) Boca Raton, Fla.: CRC Press, 1984, pp. 143-184], presumably reflecting the role of cellular calcium and phospholipid composition on binding [Konig et al.: J. Cell. Biochem. 7:255-265, (1985)]. […] The usual binding protocol were cells omits serum, because of reportedly variable effects of serum on binding [Blumberg et al.: in Mechanism of Tumor Promotion, Vol. 3. Tumor Promotion and Cocarcinogenesis in vitro, (Slaga T. J., ed.) Boca Raton, Fla.: CRC Press, 1984, pp. 143-184].

C3H10T1/2 cells [7] = assay: Inhibition of 125I-epidermal growth factor binding in C3H10T1/2 cells; type: cell-based
Excerpt: as §2

[8] = test system: HIV-1 (RF variant) in CEM-SS cells; assay: microbe, parasite or virus in culture; settings: Human immunodeficiency virus 1, CEM-SS, 144 h, read-out: Concentration at which syncytium formation (infectious virions) is strikingly inhibited (as low as)
Experimental: (§6) The XTT-tetrazolium anti-HIV assay was performed on crude extracts, chromatographic fractions and pure compounds as previously described [Weislow et al.: J. Nat. Cancer Inst. 81:577-586, (1989) and Gustafson et al.: J. Nat. Cancer Inst. 81:1254-1258, (1989)] but with several modifications. The human T-lymphoblastic cell line CEM-SS [Nara et al.: AIDS Res. Hum. […] Concentrated pellets of CEM-SS cells were incubated with the free virus for 1 hour at 37° C. The cells were then diluted and inoculated into round-bottomed 96-well microtiter plates (Corning) at a density of 5000 cells/well. Test compounds and the appropriate controls were then added to the wells, and the plates were incubated for 6 days. At the end of the incubation period cell growth parameters and HIV-1 activities were determined.
(§7) Aliquots of supernatant fluid from the test wells of the tetrazolium assay were removed prior to the time of XTT addition for quantitation of residual infectious virus using the syncytium assay described by Nara et al. [Nara et al.: AIDS Res. Hum. Retroviruses 3:283:302, (1987)].

HIV-1 p24 = assay: microbe, parasite or virus in culture; settings: Human immunodeficiency virus 1, 144 h, read-out: Concentration at which p24 viral antigen production is strikingly inhibited (as low as)
Experimental: as §6, §7

CC1=C[C@H]2[C@@]3(O)[C@H](C)C[C@]4(OC(=O)C(C)C)[C@H]([C@@H]3C=C(CO)C[C@]2(O)C1=O)C4(C)C [12-deoxyphorbol 13-isobutyrate]
Ki (protein kinase C): 2.1 ± 0.1 nM

CCCC(=O)O[C@@H]1[C@@H](C)[C@@]2(O)[C@@H](C=C(CO)C[C@]3(O)C(=O)C(C)=C[C@@H]23)[C@@H]2C(C)(C)[C@]12OC(=O)CCC [PDBu, phorbol 12,13-dibutyrate, reference compound]
EC50 (C3H10T1/2 cells [1]): 24 nM

CCCCCCCCCCCCCC(=O)O[C@@H]1[C@@H](C)[C@@]2(O)[C@@H](C=C(CO)C[C@]3(O)C(=O)C(C)=C[C@@H]23)[C@@H]2C(C)(C)[C@]12OC(C)=O [PMA, phorbol 12-myristate 13-acetate, reference compound]
Protection against HIV-1 [2]: protective against HIV-1 | Cytostatic effect (CEM-SS cells [3]; 50 nM): cytostatic

CC(=O)O[C@@]12C[C@@H](C)[C@@]3(O)[C@@H](C=C(CO)C[C@]4(O)C(=O)C(C)=C[C@@H]34)[C@@H]1C2(C)C [prostratin]
Growth-inhibitory (cytostatic) effect on uninfected control cultures (CEM-SS cells [3]; 1.0-200 μg/ml, uninfected CEM-SS, 6 days): marked growth-inhibitory, or cytostatic, effect | EC50 (C3H10T1/2 cells [1]): 1100 nM | Tumor promoting activity ([4]; general statement, no test described): substantially lacks tumor promoting activity | Tumor promoting activity ([4]; reported, Zayed et al. 1977): not a tumor promoter | viability (in vitro): > 90% | Cell viability, infected cultures (CEM-SS cells [5]): greater than 90% | Ki (CEM-SS cells [6]; 10% fetal calf serum, one experiment): 190 nM | Ki (CEM-SS cells [6]; without serum, 30 min at 37° C, mean±range, 2 experiments): 210 ± 30 nM | Inhibition of binding of epidermal growth factor (C3H10T1/2 cells [7]): induces both of these responses | minimal effective concentration [8]: ≤ 1 µg/mL | minimal effective concentration (HIV-1 p24): ≤ 1 µg/mL

[^3 H]phorbol 12,13-dibutyrate [[^3 H]PDBu, reference compound]
Bmax in CEM-SS cells (CEM-SS cells [6]; mean±range, 2 experiments): 1.2±0.1 pmol/mg protein | Kd (CEM-SS cells [6]; mean±range, 2 experiments, read-out: Binding affinity in CEM-SS cells): 4.9 ± 0.8 nM
